These results are taken from patent US10344025B2, “GLS1 inhibitors for treating disease” (Board of Regents, The University of Texas System, priority 2014, dated 2019).

Where “and” joins values, the source holds several entries; their conditions need not be identical. Equal values may be shown once. A value given as a limit tells only on which side of the number the result lay.

By IC50 is commonly meant the concentration at which inhibition is half-maximal. For orientation: EC50 means the concentration needed to bring the measured effect to its halfway point.

Assay [1] addresses purified recombinant human GAC (GLS1) (Homo sapiens (Human), UniProt O94925). In words: GLS1 Enzymatic Activity Assay (dual-coupled enzymatic assay, resorufin/Amplex UltraRed readout).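 Further: glutamate from GAC coupled via glutamate oxidase and peroxidase to resorufin, read as fluorescence (ex 530, em 590 nm) kinetically or at 20 min, four-parameter logistic IC50 fit.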 The format is biochemical.
The test system of assay [2] is A549 cells. In words: Proliferation Assay (A549 viability, Cell Titer Fluor, 72 hours). The format is cell-based. The settings on record: Homo sapiens, A549, 72 h. In a few lines: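 A549 cells seeded at 1000 cells/well, rested 24 h, then exposed to compound in 0.5% DMSO for 72 h at 37 °C. Viability read by Cell Titer Fluor fluorescence; IC50 from four-parameter logistic fit.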

Chain of purified recombinant human GAC (GLS1) (O94925 other isoform, or with tags, fused parts or gaps): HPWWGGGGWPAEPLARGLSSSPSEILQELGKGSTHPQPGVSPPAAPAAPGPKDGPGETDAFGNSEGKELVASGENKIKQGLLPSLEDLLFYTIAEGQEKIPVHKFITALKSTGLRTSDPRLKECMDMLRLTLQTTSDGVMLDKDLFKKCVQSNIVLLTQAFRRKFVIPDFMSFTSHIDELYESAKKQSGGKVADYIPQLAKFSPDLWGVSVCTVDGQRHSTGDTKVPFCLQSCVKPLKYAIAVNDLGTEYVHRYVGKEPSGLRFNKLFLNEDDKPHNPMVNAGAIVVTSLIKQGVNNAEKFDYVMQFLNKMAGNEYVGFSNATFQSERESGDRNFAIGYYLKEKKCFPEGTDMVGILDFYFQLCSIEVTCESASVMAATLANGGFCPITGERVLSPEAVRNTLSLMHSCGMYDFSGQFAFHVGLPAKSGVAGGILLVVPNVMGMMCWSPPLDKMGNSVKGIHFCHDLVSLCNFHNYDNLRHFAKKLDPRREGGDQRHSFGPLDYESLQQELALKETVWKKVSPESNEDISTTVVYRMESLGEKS

Turning to `O=C(Cc1cccc(OC(F)(F)F)c1)Nc1nnc(CCCCn2cc(C(=O)NCc3cccc(OC(F)(F)F)c3)nn2)s1` [Example 20, 1-[4-(5-{2-[3-(trifluoromethoxy)phenyl]acetamido}-1,3,4-thiadiazol-2-yl)butyl}-N-{[3-(trifluoromethoxy)phenyl]methyl}-1H-1,2,3-triazole-4-carboxamide], the IC50 in assay [1] is below 0.1 µM. In assay [2], this compound registered an EC50 below 0.1 µM.
With `O=C(Cc1cccc(OC(F)(F)F)c1)Nc1nnc(CCCCn2cc(C(=O)N[C@@H](CO)c3ccccc3)nn2)s1` [Example 21, N-[(1R)-2-hydroxy-1-phenylethyl]-1-[4-(5-{2-[3-(trifluoromethoxy)phenyl]acetamido}-1,3,4-thiadiazol-2-yl)butyl]-1H-1,2,3-triazole-4-carboxamide], in assay [1], the IC50 is below 0.1 µM. This compound also gave an EC50 in assay [2] of 0.1 to 0.5 µM.
The corresponding values for `COc1ccc(CNC(=O)c2cn(CCCCc3nnc(NC(=O)Cc4cccc(OC(F)(F)F)c4)s3)nn2)c(OC)c1` [Example 22, N-[(2,4-dimethoxyphenyl)methyl]-1-[4-(5-{2-[3-(trifluoromethoxy)phenyl]acetamido}-1,3,4-thiadiazol-2-yl)butyl]-1H-1,2,3-triazole-4-carboxamide] are below 0.1 µM and 0.1 to 0.5 µM.
The corresponding values for `O=C(Cc1cccc(OC(F)(F)F)c1)Nc1nnc(CCCCn2cc(C(=O)N[C@H](CO)c3ccccc3)nn2)s1` [Example 23, N-[(1S)-2-hydroxy-1-phenylethyl]-1-[4-(5-{2-[3-(trifluoromethoxy)phenyl]acetamido}-1,3,4-thiadiazol-2-yl)butyl]-1H-1,2,3-triazole-4-carboxamide] are below 0.1 µM and 0.1 to 0.5 µM.
On the same counts, the results for `CC(C)CNC(=O)c1cn(CCCCc2ccc(NC(=O)Cc3ccccc3)nn2)nn1` [Example 24, N-(2-methylpropyl)-1-{4-[6-(2-phenylacetamido)pyridazin-3-yl]butyl}-1H-1,2,3-triazole-4-carboxamide] are below 0.1 µM and below 0.1 µM.
As for `O=C(NCCc1ccccc1)c1nnc(CCCCc2ccc(NC(=O)[C@@H](O)c3ccccc3)nn2)s1` [Example 25, 5-(4-{6-[(2S)-2-hydroxy-2-phenylacetamido]pyridazin-3-yl}butyl)-N-(2-phenylethyl)-1,3,4-thiadiazole-2-carboxamide], the IC50 in assay [1] is below 0.1 µM. This compound also returned an EC50 in assay [2] of 0.1 to 0.5 µM.
The corresponding values for `O=C(Cc1ccccc1)Nc1ccc(CCCCc2nnc(C(=O)NCCc3ccccc3)s2)nn1` [Example 26, 5-{4-[6-(2-phenylacetamido)pyridazin-3-yl]butyl}-N-(2-phenylethyl)-1,3,4-thiadiazole-2-carboxamide] are below 0.1 µM and below 0.1 µM.
On the same counts, the results for `O=C(Cc1cccnc1)Nc1ccc(CCCCc2nnc(C(=O)NCCc3ccccc3)s2)nn1` [Example 27] are below 0.1 µM and below 0.1 µM.
The corresponding values for `O=C(Cc1ccccc1)Nc1ccc(CCCCc2nnc(C(=O)NCc3ccccc3)s2)nn1` [Example 28, N-benzyl-5-{4-[6-(2-phenylacetamido)pyridazin-3-yl]butyl}-1,3,4-thiadiazole-2-carboxamide] are below 0.1 µM and 0.1 to 0.5 µM.
As for `O=C(NCc1ccccc1)c1nnc(CCCCc2ccc(NC(=O)[C@@H](O)c3ccccc3)nn2)s1` [Example 29, N-benzyl-5-(4-{6-[(2S)-2-hydroxy-2-phenylacetamido]pyridazin-3-yl}butyl)-1,3,4-thiadiazole-2-carboxamide], in assay [1], the IC50 is below 0.1 µM. Besides, the EC50 in assay [2] is below 0.1 µM.
Regarding `O=C(Cc1cccnc1)Nc1ccc(CCCCc2nnc(C(=O)NCc3ccccc3)s2)nn1` [Example 30, N-benzyl-5-(4-{6-[2-(pyridin-3-yl)acetamido]pyridazin-3-yl}butyl)-1,3,4-thiadiazole-2-carboxamide], the IC50 in assay [1] was below 0.1 µM. In assay [2], this compound registered an EC50 below 0.1 µM.
Take `CC(C)CNC(=O)c1nnc(CCCCc2ccc(NC(=O)Cc3cccc(OC(F)(F)F)c3)nn2)s1` [Example 31, N-(2-methylpropyl)-5-[4-(6-{2-[3-(trifluoromethoxy)phenyl]acetamido}pyridazin-3-yl)butyl]-1,3,4-thiadiazole-2-carboxamide]: in assay [1], the IC50 was below 0.1 µM. This compound also showed an EC50 in assay [2] below 0.1 µM.
Regarding `O=C(Cc1cccc(OC(F)(F)F)c1)Nc1ccc(CCCCc2nnc(C(=O)NCc3ccccn3)s2)nn1` [Example 32, N-(pyridin-2-ylmethyl)-5-[4-(6-{2-[3-(trifluoromethoxy)phenyl]acetamido}pyridazin-3-yl)butyl]-1,3,4-thiadiazole-2-carboxamide], the half-inhibitory concentration (IC50) in assay [1] is below 0.1 µM. Moreover, the EC50 in assay [2] is below 0.1 µM.
In the case of `O=C(Cc1cccc(OC(F)(F)F)c1)Nc1ccc(CCCCc2nnc(C(=O)NCC3COC3)s2)nn1` [Example 33, N-(oxetan-3-ylmethyl)-5-[4-(6-{2-[3-(trifluoromethoxy)phenyl]acetamido}pyridazin-3-yl)butyl]-1,3,4-thiadiazole-2-carboxamide], the IC50 in assay [1] was below 0.1 µM. This compound came in with an EC50 in assay [2] below 0.1 µM.
As to `CC(C)(O)CNC(=O)c1nnc(CCCCc2ccc(NC(=O)Cc3cccc(OC(F)(F)F)c3)nn2)s1` [Example 34, N-(2-hydroxy-2-methylpropyl)-5-[4-(6-{2-[3-(trifluoromethoxy)phenyl]acetamido}pyridazin-3-yl)butyl]-1,3,4-thiadiazole-2-carboxamide], in assay [1], the half-maximal inhibitory concentration (IC50) was < 0.1 µM and 0.1 to 0.5 µM. For the same compound, the EC50 in assay [2] is 0.1 to 0.5 µM.
Regarding `O=C(Cc1cccc(OC(F)(F)F)c1)Nc1ccc(CCCCc2nnc(C(=O)NCc3ccccc3)s2)nn1` [Example 36, N-benzyl-5-[4-(6-{2-[3-(trifluoromethoxy)phenyl]acetamido}pyridazin-3-yl)butyl]-1,3,4-thiadiazole-2-carboxamide], in assay [1], the IC50 was below 0.1 µM. In assay [2], this compound displayed an EC50 below 0.1 µM.
Take `O=C(Cc1cccc(OC(F)(F)F)c1)Nc1ccc(CCCCc2nnc(C(=O)NCCO)s2)nn1` [Example 37, N-(2-hydroxyethyl)-5-[4-(6-{2-[3-(trifluoromethoxy)phenyl]acetamido}pyridazin-3-yl)butyl]-1,3,4-thiadiazole-2-carboxamide]: the IC50 in assay [1] is below 0.1 µM. Also, the EC50 in assay [2] was below 0.1 µM.
As to `O=C(NCc1ccccc1)c1cn(CCCCc2nnc(C(=O)NCCO)s2)nn1` [Example 41, 5-{4-[4-(benzylcarbamoyl)-1H-1,2,3-triazol-1-yl]butyl}-N-(2-hydroxyethyl)-1,3,4-thiadiazole-2-carboxamide], in assay [1], the IC50 was 0.5 to 5 µM. For the same compound, the EC50 in assay [2] was 0.5 to 5 µM.
Regarding `O=C(NCc1cccc(OC(F)(F)F)c1)c1cn(CCCCc2nnc(C(=O)NCCO)s2)nn1` [Example 45, N-(2-hydroxyethyl)-5-{4-[4-({[3-(trifluoromethoxy)phenyl]methyl}carbamoyl)-1H-1,2,3-triazol-1-yl]butyl}-1,3,4-thiadiazole-2-carboxamide], in assay [1], the IC50 was 0.1 to 0.5 µM. The compound also yielded an EC50 in assay [2] of 0.5 to 5 µM.
On the same counts, the results for `O=C(NCc1cccc(OC(F)(F)F)c1)c1cn(CCCCc2nnc(C(=O)NCc3cccc(OC(F)(F)F)c3)s2)nn1` [Example 46, N-{[3-(trifluoromethoxy)phenyl]methyl}-5-{4-[4-({[3-(trifluoromethoxy)phenyl]methyl}carbamoyl)-1H-1,2,3-triazol-1-yl]butyl}-1,3,4-thiadiazole-2-carboxamide] are below 0.1 µM and below 0.1 µM.
As to `O=C(NCc1cccc(OC(F)(F)F)c1)c1cn(CCCCc2nnc(C(=O)NCc3ccccn3)s2)nn1` [Example 47, N-(pyridin-2-ylmethyl)-5-{4-[4-({[3-(trifluoromethoxy)phenyl]methyl}carbamoyl)-1H-1,2,3-triazol-1-yl]butyl}-1,3,4-thiadiazole-2-carboxamide], in assay [1], the IC50 was below 0.1 µM. In addition, in assay [2], the EC50 was in the range of 0.1 to 0.5 µM.
On the same counts, the results for `CC(C)(O)CNC(=O)c1nnc(CCCCn2cc(C(=O)NCc3cccc(OC(F)(F)F)c3)nn2)s1` [Example 48, N-(2-hydroxy-2-methylpropyl)-5-{4-[4-({[3-(trifluoromethoxy)phenyl]methyl}carbamoyl)-1H-1,2,3-triazol-1-yl]butyl}-1,3,4-thiadiazole-2-carboxamide] are 0.5 to 5 µM and 0.5 to 5 µM.
On the same counts, the results for `O=C(NCc1cccc(OC(F)(F)F)c1)c1cn(CCCCc2nnc(C(=O)NCCN3CCCC3)s2)nn1` [Example 49, N-[2-(pyrrolidin-1-yl)ethyl]-5-{4-[4-({[3-(trifluoromethoxy)phenyl]methyl}carbamoyl)-1H-1,2,3-triazol-1-yl]butyl}-1,3,4-thiadiazole-2-carboxamide] are 0.5 to 5 µM and above 5 µM.
The corresponding values for `O=C(NCc1cccc(OC(F)(F)F)c1)c1cn(CCCCc2nnc(C(=O)NCC3COC3)s2)nn1` [Example 50, N-(oxetan-3-ylmethyl)-5-{4-[4-({[3-(trifluoromethoxy)phenyl]methyl}carbamoyl)-1H-1,2,3-triazol-1-yl]butyl}-1,3,4-thiadiazole-2-carboxamide] are 0.1 to 0.5 µM and 0.5 to 5 µM.
Take `O=C(NCc1cccc(OC(F)(F)F)c1)c1cn(CCCCc2nnc(C(=O)NC3COC3)s2)nn1` [Example 51, N-(oxetan-3-yl)-5-{4-[4-({[3-(trifluoromethoxy)phenyl]methyl}carbamoyl)-1H-1,2,3-triazol-1-yl]butyl}-1,3,4-thiadiazole-2-carboxamide]: in assay [1], the IC50 lay within 0.1 to 0.5 µM. In assay [2], this compound registered an EC50 of 0.5 to 5 µM.
On the same counts, the results for `COCCNC(=O)c1nnc(CCCCn2cc(C(=O)NCc3ccccc3)nn2)s1` [Example 52, 5-{4-[4-(benzylcarbamoyl)-1H-1,2,3-triazol-1-yl]butyl}-N-(2-methoxyethyl)-1,3,4-thiadiazole-2-carboxamide] are 0.5 to 5 µM and above 5 µM.
As for `CCOC(=O)NCc1cn(CCCCn2cc(C(=O)NCc3cccc(OC(F)(F)F)c3)nn2)nn1` [Example 54, ethyl N-[(1-{4-[4-({[3-(trifluoromethoxy)phenyl]methyl}carbamoyl)-1H-1,2,3-triazol-1-yl]butyl}-1H-1,2,3-triazol-4-yl)methyl] carbamate], in assay [1], the IC50 is 0.1 to 0.5 µM. For the same compound, the EC50 in assay [2] lay in the range of 0.1 to 0.5 µM.
